Data published in US9408845B2, “Formulations containing pyridazine compounds” (Northwestern University, priority 2006, dated 2016).
“Also recorded” adds a separate entry of the source. Where two headings read alike, the source gives them in different places.

What was measured:
[1] = system: human Aβ infusion mouse model; assay: Human Aβ infusion mouse model, hippocampal neuroinflammation and synaptic biochemical endpoints; format: in vivo; settings: hippocampus, Aβ-infused mice, oral compound
Description: The study design and treatment paradigm for intracerebroventricular (ICV) infusion of human oligomerie Aβ1-42 into the mouse will be as described previously (Craft et al., Neurobiol Aging 25:1283-1292, 2004b), except that compound administration will be by mouth. Female C57Bl/6 mice (Harlan) weighing 20-25 g (3-4 months old) will be housed in a pathogen free facility under an approximate 12 h/12 h dark and light cycle and they will have access ad libitum to food and water.
(§1) Once per day treatment will begin at day 21 after start of Aβ ICV infusion and continue for 14 days. Beginning at day 50 after start of Aβ ICV infusion, the Y maze test of spontaneous alternation will be used to evaluate hippocampus dependent spatial learning as described previously (Craf et al., J Mol. Neurosci. 24:115-122, 2004a). Briefly, each mouse will be placed in the “start” arm and then released to choose one of the two other arms. The mouse will be blocked from exiting the chosen arm for 30 s then they will be placed back in the start arm and released again to choose one of the two other arms. If the second choice is different from the first one, the mouse will be scored as alternating. Mice will be tested for 10 days with one trial per day, and a mean percent alternation will be calculated for each mouse. […] The brain will be removed and longitudinally bisected as described previously (Craft et al., Neurobiolo Aging 25:12834292, 2004b). […] The hippocampus will be dissected from the left half of the brain and snap-frozen for subsequent biochemical evaluation.
S100B levels in hippocampal supernatants will be measured by a empium-based ELISA essentially as previously described (Van Eldik and Griffin, Biochem Biophys Acta 1223:398-403, 1994). Synaptophysin levels in hippocampal supernatants will be quantified by ELISA following the procedure described previously (Craft at al, 20041, supra). PSD-95 levels will be determined by Western blots using anti-PSD-95 antibodies (1:100,000 dilution; Upstate Biotechnology) as described (Craft et al., 2004b).
It was previously shown that Aβ-induced neuroinflammation is an early event associated with the onset and progression of pathophysiology, and can be suppressed by an inhibitor of glial activation. Female C57Bl/6 mice (Harlan) weighing […] (3-4 months old) were housed in a pathogen free facility under an approximate 12 h/12 h dark and light cycle and had access ad libitum to food and water. All animal procedures were approved by the Northwestern Animal Care and Use Committee.

[2] = system: QT interval in Lead II electrocardiogram, anesthetized guinea pigs; assay: Cardiac QT interval prolongation assay in anesthetized guinea pigs; settings: 15 mg/kg PO
Description: The QT interval studies are performed by evaluating compounds for effects on QT interval in Lead II electrocardiograms measured in anesthetized guinea pigs (Hirohashi et al., 1991, Arzneim.-Forsch./Drug Res 41:9-18), one of the species recommended in the FDA white paper. Vehicle or compound is administered orally at 15 mg/kg (dosing volume of 10 ml/kg) to groups of male guinea pigs (weighing 330-350 g), with 5 animals per group. […] Heart rate, arterial blood pressure, and QT intervals are measured at baseline, and at 15, 30, 45, and 60 min after compound administration. Sotalol administered iv at 0.3 mg/kg serves as the positive control compound. The QT intervals are corrected for changes in heart rate using both Bazetes and Fridericia's formulae. Any increase in QT interval values over baseline values exceeding the upper 95% confidence limit of the mean changes at the corresponding time point in the vehicle-treated control group for two consecutive observation times indicates significant QT interval prolongation in the individually treated animals.
The QT intervals (QTc) were corrected for changes in heart rate using both Bazett's and Fridericia's formulae.
The test substance was dissolved in 2% Tween 80 and administered by oral administration. The substance was treated at 15 mg/kg with a dosing volume of 10 ml/kg. Duncan Hartley derived guinea pigs provided by MDS Pharma Services—Taiwan Ltd were used. Sotalol was obtained from Sigma, USA.
Groups of guinea pigs (weighing 330-350 g) with 5 animals each were employed. The animals were anesthetized with urethane (1500 mg/kg, IV bolus injection in a volume of 5 ml/kg) and breathed spontaneously. Lead II ECG was obtained with subdermal needle electrodes and ECG signal conditioner. Heart rate was measured with a pulse rate tachometer. The carotid artery was cannulated with a catheter that was connected to a pressure transducer and a pressure processor for measurements of arterial blood pressure (BP). […] QTC intervals were obtained by correction for heart rate changes using Bazett's and Fridericia's formulae. Increase in QTc interval in individual treated guinea pigs that lies outside the upper limit of 95% confidence limits (mean±SD) of the changes for the vehicle-treated control at corresponding time points for two consecutive times is considered significant.

[3] = system: LPS-induced IL-1β production in BV-2 microglia cells; assay: LPS-induced IL-1β production in BV-2 microglial cells; settings: Mus musculus, BV-2, 16 h, read-out: IL-1β, concentration required for 50% inhibition
[4] = system: human Aβ infusion mouse model; assay: Human Aβ infusion mouse model, Y maze behavioral assay; format: in vivo; settings: 1.25, 2.5, 5, and 10 mg/kg
Excerpt: as §1

liver histology, mice = assay: Chronic, therapeutic dose liver toxicity assay
Excerpt: (§2) Mice will be anesthetized and sacrificed as described above. Livers will be removed, fixed in 4% (v/v) paraformaldehyde and paraffin-embedded for histology. To assess histological toxicity, 4 μm liver sections will be stained with haematoxylin and eosin. Two independent observers blinded to the treatment groups will perform microscopic assessment of the tissue for injury.
After two weeks of treatment, mice are sacrificed and liver toxicity analyzed as described above. For each chronic toxicity assay, 5 mg of compound is required.
as §2, with “were” for “will be”, “killed” for “sacrificed”, “paraformaldehyde,” for “paraformaldehyde”, “pan” for “μm”, “hematoxylin” for “haematoxylin”, “performed” for “will perform”

[5] = system: nitric oxide (NO) production in BV-2 microglial cells; assay: LPS-stimulated accumulation of nitrite (NO metabolite) in BV-2 cells, Griess assay; format: cell-based, mouse; settings: Mus musculus, read-out: NO, concentration required for 50% inhibition
[6] = mouse, in vivo
[7] = Caccia et al., 1985; cited from earlier work

SMILES | loss of PSD-95 [1] | loss of synaptophysin [1] | up-regulation of IL-1β [1] | up-regulation of S100B [1] | prevention of Y-maze behavioral deficit [4] | liver toxicity score versus control mice (liver histology, mice; mouse, in vivo, po, […]) | further results
Cc1cc(-c2ccccc2)nnc1N1CCN(c2ncccn2)CC1 [MW01-2-151SRM, 4-methyl-6-phenyl-3-(4-pyrimidin-2-ylpiperazin-1-yl)pyridazine] | prevented | prevented | blocked | blocked | significantly effective | no significant differences | effect on heart rate [2]: no significant effects; effect on mean blood pressure [2]: no significant effects; QTc / QT interval prolongation ([2]; 60 min post-dosing, 5 guinea pigs): did not cause any significant prolongation; also recorded: Neither compound increased; IC50 [3]: 8.3 ± 5.8 µM; IC50 ([5]; LPS-stimulated BV-2 cells, 16 hrs): > 25 µM
c1ccc(-c2cc(-c3ccccc3)c(N3CCN(c4ncccn4)CC3)nn2)cc1 [MW01-5-188WH, 4,6-diphenyl-3-(4-pyrimidin-2-ylpiperazin-1-yl)pyridazine] | – | – | – | – | – | no significant differences | IC50 ([5]; BV-2, 16 h): > 25 µM; oral bioavailability properties [6]: good oral bioavailability; time of decline to basal levels / bulk clearance, plasma/blood ([6]; po): ≤ 120 min
c1ccc(-c2cc(-c3ccncc3)c(N3CCN(c4ncccn4)CC3)nn2)cc1 [MW01-6-189WH, 4-pyridyl-6-phenyl-3-(4-pyrimidin-2-ylpiperazin-1-yl)pyridazine] | prevented | trend toward preventing | blocked | blocked | significantly effective | – | liver toxicity score versus control mice (liver histology, mice; C57Bl/6 mice, […] oral, 2 weeks, scale 0 (best) to 9 (worst)): no significant differences
Cc1cc(-c2ccccc2)nnc1NCCN1CCOCC1 [minaprinc, minaprine] | – | – | – | – | – | – | brain/blood ratio [7]: about 2
